Results published in paper PMC6297231 (Nature Communications, 2018).

Tests used:
Test in all cases: cells
[1] = system: ML2; conditions: Homo sapiens, ML-2, 6 h, read-out: AZD5991 6h EC50
Experimental: (§1) Cells were plated at 3000 cells/well in 384-well white plates in corresponding cell growth media. […] Caspase-3/7 activation was subsequently determined using a Caspase-Glo 3/7 Reagent (Promega) and viability was assayed using the CellTiter-Glo Reagent (Promega) as described in manufacturer’s instructions. Dose–response curves for caspase-3/7 activation and viability were plotted and analyzed (including EC50 and GI50 determination) using GraphPad Prism. Percentage of caspase activation was calculated against the maximum caspase activation value (100%) obtained with a proprietary cell kill control.

[2] = system: MCF7; conditions: Homo sapiens, MCF7, 6 h, read-out: AZD5991 6h EC50
Experimental: as §1

[3] = system: H2126; conditions: Homo sapiens, NCI-H2126, 6 h, read-out: AZD5991 6h EC50
Experimental: as §1

[4] = system: WM2664; conditions: Homo sapiens, WM 266-4, 6 h, read-out: AZD5991 6h EC50
Experimental: as §1

[5] = system: Karpas422; conditions: Homo sapiens, KARPAS-422, 6 h, read-out: AZD5991 6h EC50
Experimental: as §1

[6] = system: H1703; conditions: Homo sapiens, NCI-H1703, 6 h, read-out: AZD5991 6h EC50
Experimental: as §1

[7] = system: Namalwa; conditions: 6 h, read-out: AZD5991 6h EC50
Experimental: as §1

[8] = system: Sudhl6; conditions: Homo sapiens, SU-DHL-6, 6 h, read-out: AZD5991 6h EC50
Experimental: as §1

[9] = system: KMS12BM; conditions: Homo sapiens, KMS-12-BM, 6 h, read-out: AZD5991 6h EC50
Experimental: as §1

[10] = system: U2932; conditions: Homo sapiens, U2932, 6 h, read-out: AZD5991 6h EC50
Experimental: as §1

[11] = system: H446; conditions: Homo sapiens, NCI-H446, 6 h, read-out: AZD5991 6h EC50
Experimental: as §1

[12] = system: H1568; conditions: NCI-H1568, 6 h, read-out: AZD5991 6h EC50
Experimental: as §1

[13] = system: H146; conditions: Homo sapiens, NCI-H146, 6 h, read-out: AZD5991 6h EC50
Experimental: as §1

[14] = system: OE21; conditions: OE21, 6 h, read-out: AZD5991 6h EC50
Experimental: as §1

[15] = system: REC1; conditions: Homo sapiens, Rec1, 6 h, read-out: AZD5991 6h EC50
Experimental: as §1

[16] = system: WSUDLCL2; conditions: Homo sapiens, WSUDLCL2, 6 h, read-out: AZD5991 6h EC50
Experimental: as §1

[17] = system: VAL; conditions: 6 h, read-out: AZD5991 6h EC50
Experimental: as §1

[18] = system: L363; conditions: Homo sapiens, L-363, 6 h, read-out: AZD5991 6h EC50
Experimental: as §1

[19] = system: RCK8; conditions: Homo sapiens, RCK8, 6 h, read-out: AZD5991 6h EC50
Experimental: as §1

[20] = system: JEKO1; conditions: Homo sapiens, JeKo-1, 6 h, read-out: AZD5991 6h EC50
Experimental: as §1

[21] = system: MM1R; conditions: MM.1R, 6 h, read-out: AZD5991 6h EC50
Experimental: as §1

[22] = system: H322; conditions: NCI-H322, 6 h, read-out: AZD5991 6h EC50
Experimental: as §1

[23] = system: OV90; conditions: Homo sapiens, OV-90, 6 h, read-out: AZD5991 6h EC50
Experimental: as §1

[24] = system: SNU16; conditions: Homo sapiens, SNU-16, 6 h, read-out: AZD5991 6h EC50
Experimental: as §1

[25] = system: H2110; conditions: NCI-H2110, 6 h, read-out: AZD5991 6h EC50
Experimental: as §1

[26] = system: DOHH2; conditions: Homo sapiens, DOHH-2, 6 h, read-out: AZD5991 6h EC50
Experimental: as §1

[27] = system: H1975; conditions: Homo sapiens, NCI-H1975, 6 h, read-out: AZD5991 6h EC50
Experimental: as §1

[28] = system: THP-1; conditions: Homo sapiens, THP-1, 6 h, read-out: AZD5991 6h EC50
Experimental: as §1

[29] = system: H1734; conditions: Homo sapiens, NCI-H1734, 6 h, read-out: AZD5991 6h EC50
Experimental: as §1

[30] = system: DLD1; conditions: Homo sapiens, DLD-1, 6 h, read-out: AZD5991 6h EC50
Experimental: as §1

[31] = system: RCPIWM1; conditions: 6 h, read-out: AZD5991 6h EC50
Experimental: as §1

[32] = system: MALME3M; conditions: Homo sapiens, Malme-3M, 6 h, read-out: AZD5991 6h EC50
Experimental: as §1

[33] = system: GIST T1; conditions: Homo sapiens, GISTT1, 6 h, read-out: AZD5991 6h EC50
Experimental: as §1

[34] = system: HBL1; conditions: HBL1, 6 h, read-out: AZD5991 6h EC50
Experimental: as §1

[35] = system: OCIAML2; conditions: Homo sapiens, OCI-AML2, 6 h, read-out: AZD5991 6h EC50
Experimental: as §1

## Cc1c2c(nn1C)CSCc1cc(n(C)n1)CSc1cc(c3ccccc3c1)OCCCc1c(C(=O)O)n(C)c3c-2c(Cl)ccc13 (atropisomer, axis not shown; (Ra)) [(Ra)-7]
[1]
  EC50: 83 nM
[2]
  EC50: 313 nM
[3]
  EC50: 157 nM
[4]
  EC50: > 30000 nM
[5]
  EC50: 530 nM
[6]
  EC50: 801 nM
[7]
  EC50: 67 nM
[8]
  EC50: 56 nM
[9]
  EC50: 56 nM
[10]
  EC50: 24200 nM
[11]
  EC50: > 30000 nM
[12]
  EC50: 300 nM
[13]
  EC50: > 30000 nM
[14]
  EC50: 187 nM
[15]
  EC50: 2010 nM
[16]
  EC50: 159 nM
[17]
  EC50: 172 nM
[18]
  EC50: 90 nM
[19]
  EC50: > 30000 nM
[20]
  EC50: 512 nM
[21]
  EC50: 120 nM
[22]
  EC50: > 30000 nM
[23]
  EC50: > 30000 nM
[24]
  EC50: 183 nM
[25]
  EC50: 226 nM
[26]
  EC50: 136 nM
[27]
  EC50: > 30000 nM
[28]
  EC50: 125 nM
[29]
  EC50: 20100 nM
[30]
  EC50: 29100 nM
[31]
  EC50: 39 nM
[32]
  EC50: > 30000 nM
[33]
  EC50: > 30000 nM
[34]
  EC50: 25800 nM
[35]
  EC50: 472 nM
